Laboratory results reported in patent US3941800A, “N-benzyltriazole compounds” (Bayer Aktiengesellschaft, priority 1969, dated 1976).

Key:
Format in all cases: in vivo
linseed = assay: Growth inhibition/linseed test; conditions: 72 h, root length after 3 days vs control, dark, 25°C, pH 6
Procedure: (§1) Solvent: 40 parts by weight acetone
(§2) Emulsifier: 0.25 parts by weight alkylaryl polyglycol ether
(§3) To produce a suitable preparation of active compound, 1 part by weight of active compound was mixed with the stated amount of solvent which contained the stated amount of emulsifier, and the concentrate was diluted with a disodium hydrogen phosphate-potassium dihydrogen phosphate buffer solution (pH 6) to the desired concentration.
Batches of 25 linseeds were laid out on two filter papers in a Petri dish. 10 ml. of the preparation of active compound were pipetted into each dish. Germination of the seeds took place in the dark at 25°C.
After 3 days, the length of the roots was determined and the growth inhibition compared with the control plant was expressed as a percentage. 100% denoted the standstill of growth, and 0% denoted a growth corresponding to that of the untreated plant.
The active compounds, the concentrations of the active compounds in ppm (=mg/kg) and results can be seen from the following Table.

oat grains = assay: Growth inhibition/oat grains; conditions: 72 h, shoot length after 3 days vs control, dark, 25°C, pH 6
Procedure: as §1, §2, §3
Batches of 25 oat grains were laid out on two filter papers in a Petri dish. 10 ml. of the preparation of active compound were pipetted into each dish. Germination of the seeds took place in the dark at 25°C.
After 3 days, the length of the shoot was determined and the growth inhibition compared with the control plant was expressed as a percentage. 100% denoted the standstill of growth, and 0% denoted a growth corresponding to that of the untreated plant.
The active compounds, concentrations of the active compounds in ppm (=mg/kg) and the results can be seen from the following Table.

apple seedlings = assay: Growth inhibition/apple seedlings; conditions: 168 h; 500 ppm spray on seedlings about 2 cm high; after 7 days vs untreated control
Procedure: as §1, §2, §3
Apple seedlings were, at a height of about 2 cm, sprayed with a preparation which contained 500 ppm of active compound.
After 7 days, the percentage inhibition of the treated plants compared with the untreated control plant was determined. With 100% inhibition, no growth was present; with 0% inhibition, the growth corresponded to that of the control plant.
The active compounds, the concentrations of the active compounds in ppm (=mg/kg) and the results can be seen from the following Table.

tomato plants = assay: Growth inhibition/tomato plants; conditions: Solanum lycopersicum, 192 h; 500 ppm spray on plants 10 cm high; after 8 days vs untreated control
Procedure: as §1, §2
as §3, with “compounds,” for “compound,”
Tomato plants of a height of 10 cm were sprayed with a preparation which contained 500 ppm of active compound.
After 8 days, the percentage inhibition of the treated plants compared with the untreated control plant was determined. With 100% inhibition, no growth was present; with 0% inhibition, the growth corresponded to that of the control plant.
The active compounds, concentration of active compound in ppm (=mg/kg) and the results can be seen from the following Table.

[1] = tested on: beans (Phaseolus vulgaris); assay: Growth inhibition/bean plants; conditions: 500 ppm spray on beans 10 cm high; length after 8 days; water control 26 cm
Procedure: as §1, §2
as §3, with “concentrations.” for “concentration.”
Beans (Phaseolus vulgaris) 10 cm high were sprayed with preparations which contained 500 ppm of active compound.
After 8 days, the length of the treated plants compared with the untreated control plant was determined.
The active compounds, concentrations of active compound in ppm (=mg/kg) and the results can be seen from the following Table.

SMILES	inhibition at 50 ppm (linseed) [%]	inhibition at 250 ppm (linseed) [%]	inhibition at 50 ppm (oat grains) [%]	inhibition at 250 ppm (oat grains) [%]	inhibition at 500 ppm (apple seedlings) [%]	inhibition at 500 ppm (tomato plants) [%]	Length in cm with a concentration of active compound of 500 ppm [1] [cm]
C[N+](C)(C)CCCl [(2-chloroethyl)-trimethyl-ammonium chloride, reference compound]	20	30	22	31	25	25	–
Cc1cc(C(c2ccccc2)(c2ccc(F)cc2)n2cncn2)no1 (stereo not shown) [Compound 1, (4-fluoro-phenyl)-phenyl-(5-methyl-isoxazol-3-yl)-(1,2,4-triazol-1-yl)-methane]	85	100	97	100	50	81	10.5
Cc1cc(C(c2ccccc2)(c2ccc(Cl)cc2)n2cncn2)no1 (stereo not shown) [Compound 2, (4-chloro-phenyl)-phenyl-(5-methyl-isoxazol-3-yl)-(1,2,4-triazol-1-yl)-methane]	55	85	55	95	–	88	10.0
Cc1cccc(C(c2ccccc2)(c2nccn2C)n2cncn2)c1 (stereo not shown) [Compound 3, (3-methyl-phenyl)-phenyl-(1-methyl-imidazol-2-yl)-(1,2,4-triazol-1-yl)-methane]	85	100	–	–	–	60	–
Cc1cc(C(c2ccccc2)(c2ccccc2)n2cncn2)no1 [Compound 4, bis-phenyl-(5-methyl-isoxazol-3-yl)-(1,2,4-triazol-1-yl)-methane]	–	–	65	75	43	80	–
Cn1ccnc1C(c1ccccc1)(c1ccc(Cl)cc1)n1cncn1 (stereo not shown) [Compound 6, (4-chloro-phenyl)-phenyl-(1-methyl-imidazol-2-yl)-(1,2,4-triazol-1-yl)-methane]	–	–	25	70	–	–	–
Cn1ccnc1C(c1ccccc1)(c1ccc(C(C)(C)C)cc1)n1cncn1 (stereo not shown) [Compound 7, (4-tert.-butyl-phenyl)-phenyl(1-methyl-imidazol-2-yl)-(1,2,4-triazol-1-yl)-methane]	–	–	25	62	–	–	–
Cn1ccnc1C(c1ccccc1)(c1ccc(-c2ccccc2)cc1)n1cncn1 (stereo not shown) [Compound 8, (4-phenyl-phenyl)-phenyl(1-methyl-imidazol-2-yl)-(1,2,4-triazol-1-yl)-methane]	–	–	–	–	–	–	11.5
O=c1ccc(=O)[nH][nH]1 [maleic acid hydrazide, reference compound]	36	50	20	40	–	33	12
CN(C)NC(=O)CCC(=O)O [succinic acid 2,2-dimethylhydrazide, reference compound]	12	15	22	37	23	20	–
